According to patent publication USRE47078E1, “Polymorphic forms of N-[4-(trifluoromethyl)benzyl]-4-methoxybutyramide” (Laboratorio Farmaceutico C.T. S.R.L., priority 2007, dated 2018):
Converted amounts (≈) assume the structure as drawn.

Assays:
Rat = conditions: compared with GHB, according to EP 0 932 597 B1; cited from earlier work
[1] = Thermodynamic stability / interconversion of the polymorphs; assay type: physicochemical
[2] = Solubility of the polymorphs at different pH (HPLC assay); assay type: physicochemical
Description: Both samples of powder (Form A and Form B) were used in order to evaluate the solubility properties of the two polymorphs at different pH.
The two samples were tested in the following pH conditions: • Hydrochloric acid buffer at pH=1.2 • Acetic acid at pH=3.0 • Phosphate buffer at pH=3.0 • Phosphate buffer at pH=4.6 • Phosphate buffer at pH=6.0 • Phosphate buffer at pH=7.4 • Alkaline phosphate buffer at pH=8.0
0.5 g of each samples were dissolved in a glass flask using 100 ml of the appropriate buffer. The two samples were then kept under stirring for 30 minutes. If the samples were completed dissolved, 1 additional gram was added in the flask and stirred for 30 minutes. The procedure was repeated till the presence of undissolved product in the bottom of the flask. After such a dissolution procedure, the samples were stored for 24 hours and then the dissolved amounts of Form A and Form B, respectively, were determined by HPLC assay.

COCCCC(=O)NCc1ccc(C(F)(F)F)cc1 [N-[4-(trifluoromethyl)benzyl]-4-methoxybutyramide]
Potency and duration of action on motor activity (Rat): better than GHB

COCCCC(=O)NCc1ccc(C(F)(F)F)cc1 [Polymorphic Form B, N-[4-(trifluoromethyl)benzyl]-4-methoxybutyramide]
Thermodynamic stability, conversion of one form into the other [1]: thermodynamically stable, with no conversion of one into the other | Solubility, After 24 hours ([2]; Water): 162.64 µg/mL (≈ 591 µM) | Solubility, Initial evaluation ([2]; Water): 125.44 µg/mL (≈ 456 µM) | Differences in solubility / dissolution properties between the two forms ([2]; dissolution tests on each polymorph): have not shown differences in the solubility properties | Solubility, After 24 hours ([2]; pH 1.2): 164.47 µg/mL (≈ 597 µM) | Solubility, Initial evaluation ([2]; pH 1.2): 136.12 µg/mL (≈ 494 µM) | Solubility, After 24 hours ([2]; pH 3.0 (acetic acid)): 164.84 µg/mL (≈ 599 µM) | Solubility, Initial evaluation ([2]; pH 3.0 (acetic acid)): 143.69 µg/mL (≈ 522 µM) | Solubility, After 24 hours ([2]; pH 3.0 (phosphate buffer)): 156.73 µg/mL (≈ 569 µM) | Solubility, Initial evaluation ([2]; pH 3.0 (phosphate buffer)): 126.87 µg/mL (≈ 461 µM) | Solubility, After 24 hours ([2]; pH 4.6): 147.14 µg/mL (≈ 535 µM) | Solubility, Initial evaluation ([2]; pH 4.6): 129.35 µg/mL (≈ 470 µM) | Solubility, After 24 hours ([2]; pH 6.0): 143.2 µg/mL (≈ 520 µM) | Solubility, Initial evaluation ([2]; pH 6.0): 125.95 µg/mL (≈ 458 µM) | Solubility, After 24 hours ([2]; pH 6.8): 146.25 µg/mL (≈ 531 µM) | Solubility, Initial evaluation ([2]; pH 6.8): 131.46 µg/mL (≈ 478 µM) | Solubility, After 24 hours ([2]; pH 7.4): 143.79 µg/mL (≈ 522 µM) | Solubility, Initial evaluation ([2]; pH 7.4): 113.60 µg/mL (≈ 413 µM) | Solubility, After 24 hours ([2]; pH 8.0): 146.25 µg/mL (≈ 531 µM) | Solubility, Initial evaluation ([2]; pH 8.0): 130.61 µg/mL (≈ 474 µM)
